Results: publication PMC10119930, “Dual Molecules Targeting 5-HT6 and GABA-A Receptors as a New Approach to Combat Depression Associated with Neuroinflammation” (ACS Chemical Neuroscience, 2023)

Columns and labels:
[1] = Stability under radioligand binding assay conditions (incubation with brain tissue); type: in vitro ADME; conditions: after 1 h of incubation with brain tissue
Plasma stability assay = type: in vitro ADME, rat
Description: The quantitative HPLC analyses were acquired using Waters Alliance e2695 separations module (Waters, Milford, CT, USA) containing 2998 photodiode array (PDA), a detector (Waters, Milford, CT, USA), and the SpeedROD RP-18e 50–4.6 mm column (Merck, KGaA, Darmstadt, Germany). The temperature of the column was preserved at 30 °C. […] Each sample was injected at a volume of 10 μL in triplicate. […] The stock solutions were mixed with methanol and diluted, resulting in various solutions with concentrations ranging from 1.0 to 0.125 μg/mL. These solutions were then utilized to generate calibration curves by plotting AUC versus concentration in μg/mL. The examined molecules (2 mg) were dissolved in 1 mL of Dulbecco’s phosphate buffered saline (DPBS). The mixture was then continuously agitated at 22 °C for 24 h using a thermoshaker. Following this period, the mixtures were filtered through a cellulose acetate syringe filter (with a pore size of 0.22 μm), moved to a chromatographic vial, and analyzed. To quantify the investigated compounds, the areas beneath their respective peaks on DAD chromatograms were employed. Solubility was calculated using the calibration curves. Chemical stability assay: Stock solution of 16 in DMSO (10 mg/mL) was used. Next, 25 μL of stock solution was mixed with 975 μL of PBS (Dulbecco’s phosphate-buffered saline, Sigma, Poland). […] HPLC analyses were used to quantify the percentage of molecules that remained at each time point relative to the 0 min time point. Brain tissue stability assay: […] Then, 50 μL of the stock solution was combined with 50 μL of ice-cold 50 mM Tris-HCl buffer (pH 7.4) and 150 μL of brain homogenate (suspended in 20 volumes of 50 mM Tris-HCl buffer, ice cold, pH 7.4). The mix was then incubated at 37 °C and quenched at several time points. To terminate the reaction mixture, 250 μL of the appropriate reaction mixture was mixed with 1000 μL of MeCM in the Eppendorf Tube. Following 10 min of shaking (1500 rpm), samples were centrifuged (10 000 rpm, 10 min, 4 °C) and the acquired supernatant was collected. Before conducting HPLC analysis, the supernatant was filtered via a cellulose acetate syringe filter with a pore size of 0.45 μm and then transferred to a chromatographic vial. HPLC analysis was used to determine the percentage of the tested molecule remaining at each time point, relative to the 0 min time point. Plasma stability assay was performed as described previously.[45] Frozen rat plasma (Wistar) was thawed. […] The samples were collected at relative time points. The reaction was terminated by adding 1200 of μL acetonitrile/methanol mixture (50:50, v/v). The samples were centrifuge at 25 000 rpm for 10 min. HPLC analysis was used to determine the percentage of the tested molecule remaining at each time point relative to the 0 min time point. All the experiments were performed in duplicate.

5-HT6 receptor [2] = target: T1, 5-HT6 receptor (Homo sapiens, UniProt P50406); assay: Functional assay for 5-HT6 receptor, antagonist mode (aequorin, CHO-K1 cells); type: cell-based; parameters: expressed in transfected cells; host or cells: CHO-K1 (co-expressing mitochondrially targeted aequorin and G protein α16); conditions: ±S.E.M., read-out: 5-HT6 R KB
T1 sequence (P50406 whole entry): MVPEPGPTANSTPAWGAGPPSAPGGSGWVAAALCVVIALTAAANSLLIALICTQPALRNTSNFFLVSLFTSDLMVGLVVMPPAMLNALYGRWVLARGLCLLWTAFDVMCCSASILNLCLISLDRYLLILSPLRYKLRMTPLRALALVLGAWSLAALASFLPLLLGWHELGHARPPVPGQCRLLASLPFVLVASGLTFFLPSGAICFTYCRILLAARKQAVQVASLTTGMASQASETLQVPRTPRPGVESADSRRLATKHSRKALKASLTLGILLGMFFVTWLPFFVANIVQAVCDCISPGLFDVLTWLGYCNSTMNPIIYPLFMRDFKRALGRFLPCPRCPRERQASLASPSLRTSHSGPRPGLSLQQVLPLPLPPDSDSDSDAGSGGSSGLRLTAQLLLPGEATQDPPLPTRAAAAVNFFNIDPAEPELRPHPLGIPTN
Description: The studies were acquired according to previous protocols.[41] All the examined compounds (novel and the reference) were dissolved in DMSO (1 mM) and diluted accordingly using the assay buffer, directly in 96-well microplate. The recombinant CHO-K1 cells expressing human GPCR, mitochondrially targeted aequorin, and the promiscuous G protein α16 specific for 5-HT6 were used for the functional assay. The cells were thawed and suspended in the appropriate buffer containing DMEM/HAM’s F12 with 0.1% protease free BSA and were then centrifuged. After adding coelenterazine h to a final concentration of 5 μM, the cell pellet was resuspended in the buffer. The cell suspension was incubated at 16 °C for 16 h while being protected from light, gently shaken, and diluted with assay buffer to a concentration of 5000 cells/mL. Following that, 50 μL of the cell suspension was introduced to preloaded white opaque 96-well microplates containing the tested molecules. This was done using the automatic injectors integrated into the radiometric and luminescence plate counter MicroBeta2 LumiJET (PerkinElmer, USA). The light emission resulting from calcium mobilization was monitored for a duration of 60 s. For examination of the antagonistic properties of tested molecule, following 30 min of incubation, the reference agonist was administrated and the light emission was detected.

5-HT6 receptor [3] = target: T1, 5-HT6 receptor; assay: Radioligand binding assay for 5-HT6 receptor ([3H]-LSD displacement); parameters: expressed in transfected cells; host or cells: HEK-293 (cryopreserved membranes); conditions: competitive replacement of [3H]-LSD; ±S.E.M.; read-out: 5-HT6R Ki
Description: To determine the affinity for 5-HT6, the cryopreserved membranes from HEK-293 cells stably transfected with the human recombinant 5-HT6 receptor were used.[40] Preparation of the tested compounds included preparation of stock solutions in DMSO (1 mM) and subsequent serial dilutions (10^–10–10^–5 M) of tested compounds in the appropriate buffer (50 mM Tris buffer, pH 7.4, 10 mM MgCl2, 0.5 mM ethylenediaminetetraacetic acid). The serial dilutions were acquired directly on a 96-well microplate. The reaction mix included 50 μL of appropriate concentration of tested molecule, 50 μL of [^3H]LSD 2.5/2.0 nM, and 150 μL of diluted membranes. The microplate containing the reaction mix was protected with a sealing tape and incubated for 60 min at 37 °C. Quenching of the reaction mixtire included: rapid filtration through UniFilter 96 GF/B filter microplate and rapid washes using 200 μL 50 mM assay buffer and vacuum manifold and 96-well pipettor. The collected microplates were dried overnight at 37 °C. The UniFilter bottoms were sealed, and then 30 μL of Betaplate Scint liquid scintillator (PerkinElmer) was added to each well. […] The obtained data were fit to a one-site curve-fitting equation using Prism 5 software (GraphPad Software), and the Ki values were determined using the Cheng–Prusoff equation. Radioligand binding was performed in duplicates.

[4] = Metabolic stability in rat liver microsomes; type: in vitro ADME; conditions: assayed at 10^–7 M
Description: The assay was performed by Eurofins Discovery, a contract research organization, according to standard methodology, described previously.[46]

Cc1c(OCc2ccccc2)cccc1N1CCN(CCOC(=O)CCCN)CC1.Cl.Cl [Compound 16, 1-(2-((4-Ammoniobutanoyl)oxy)ethyl)-4-(3-(benzyloxy)-2-methylphenyl)piperazin-1-ium Dichloride]
% of the compound remaining [1]: 98.21% | % compound remaining (rat plasma, 37 °C) (Plasma stability assay; 0 min): 100 ± 0.1% | % compound remaining (rat plasma, 37 °C) (Plasma stability assay; 15 min): 97.21 ± 0.8% | % compound remaining (rat plasma, 37 °C) (Plasma stability assay; 30 min): 90.35 ± 1.4% | % compound remaining (rat plasma, 37 °C) (Plasma stability assay; 60 min): 79.65 ± 2.5% | % compound remaining (rat plasma, 37 °C) (Plasma stability assay; 120 min): 45.37 ± 2.2% | % compound remaining (rat plasma, 37 °C) (Plasma stability assay; 240 min): 21.46 ± 1.2% | Kb (5-HT6 receptor [2]): 11.9 ± 0.1 nM | Ki (5-HT6 receptor [3]): 16 ± 0.4 nM | rat liver microsomes Clint [4]: <115.5 (μL/min)/mg | rat liver microsomes t0,5 [4]: >60 min
